Test results: patent US10744119B1, “Inhibitors of the malarial GST” (University of Puerto Rico, priority 2014, dated 2020)
pEC50: −log10 of the molar value. Like-named read-outs stand apart in the source and are kept apart here.

Tests used:
P. berghei blood stages [1] = conditions: read-out: EC50, published results; published value; cited from earlier work
P. berghei blood stages [2] = experiment: Plasmodium berghei in vitro drug luminescence (ITDL) assay; type: cell-based; conditions: read-out: EC50, growth inhibition of P. berghei blood stages
Experimental: The compounds were received as 10 mM stocks dissolved in 100% DMSO. These stocks were stored at −20° C. The DMSO stock compounds were diluted in complete culture medium (RPMI1640 medium supplemented with 20% FBS from Gibco® heat-inactivated and Neomycin stock solution of 10,000 IU/mL from Sigma-Aldrich®) for use in the Plasmodium berghei in vitro drug luminescence assay. For initial testing, the compounds were used at the following concentration: 0.01 μM, 0.1 μM, 1 μM and 10 μM; in triplicate point to determine the inhibition curve for each compound.
This assay measures the in vitro development of P. berghei ring stage into mature schizonts in the presence of inhibitors/drugs. The Swiss-CD1 female mice were infected with the GFP-luc parasite line. The GFP-luc parasite line allows determination of the luciferase activity in the cultured mature schizonts, which is directly proportional to the number of schizonts. When the parasitemia reaches 1-3%, the RBCs were collected from the infected mice and used to perform the assay. The susceptibility of blood stages parasites was determined in the presence of standard GST inhibitors and the TCAMS compounds identified from the VLS. […] The standard GST inhibitors were weighed and dissolved in 100% DMSO to prepare the stock solution. Dilutions of the standard GST inhibitors were freshly prepared in complete culture medium (RPMI1640 medium supplemented with 20% FBS from Gibco® heat-inactivated and Neomycin stock solution of 10,000 IU/mL from Sigma-Aldrich®) for each assay. The dilutions of the inhibitors were added to the wells in triplicates, 50 μL per well. Chloroquine diphosphate salt from Sigma-Aldrich® was used as a control (at a concentration of 100 nM) for complete inhibition of blood stage development. Further, infected blood was collected from one mouse by cardiac puncture under anesthesia early in the morning (between 9:00-10:[…]). The blood was added to a 50 mL tube containing 5 mL complete culture medium supplemented with 300 μL heparin stock solution (25,000 U/mL). The blood was centrifuged for 8 min at 450×g and the supernatant was removed. The blood was resuspended in a complete culture medium comprising a concentration of 2% (v/v). In the next step, 50 μL of the blood suspension was added in each well containing the inhibitors dilutions. The 96-well black culture plates containing the infected blood solution were placed into a candle jar. The candle jar was carefully flushed with a gas mixture of 5% CO2, 5% O2, 90% N2 using a 0.22 μm filter unit connected to the gas hose for 2 minutes. The lid was tightly closed immediately after gassing. The infected blood suspension was incubated at 37° C. with continuous agitation (enough to keep the cells suspended) for 24 hours allowing the ring stages to develop into the mature schizonts. After the culture period, the schizonts were evaluated by microscopic examination of Diff Quick-stained thin blood smears. The 96-well plate was centrifuged at 1,000×g for 5 minutes. The supernatant was removed using a syringe needle on those sides of the wells without red blood cell after spinning. The luciferase activity was measured in cultured mature schizonts using the Luciferase Assay System Kit from Promega (Cat. No. E1500). The RBCs were lysed by adding 50 μL of 1× cell culture lysis reagent into each well. The plate was shaken for 5 minutes to assure complete lysis. Afterward, 50 μL of the luciferase assay reagent was added. The luminescence was measured using the SpectraMax® M3 Microplate Reader (Molecular Devices). […] The data was analyzed and used to generate standard in vitro inhibition curves, and EC50 values of each compound were calculated. Preliminary data analyses were performed using Microsoft Excel and the effective concentration (50% of the maximal inhibition; EC50 values) were calculated using GraphPad Prism software (Graph-Pad software, Inc., US, Mac Version 6).

P. berghei GST (pbGST) = P. berghei GST (pbGST) (Plasmodium berghei, UniProt A0A509AJX5); experiment: Inhibition of GST activity (CDNB/GSH, 340 nm) in P. berghei protein extracts; type: biochemical; conditions: for inhibitory activity on pbGST: 1, 10 and 50 μM, duplicate (n=2), more marked effect at 50 μM
Experimental: Glutathione S-transferase Activity in Blood Stage Parasites: The parasite extracts were prepared as the method described in the Protein for Enzymatic Activity. The enzymatic activity was determined spectroscopically using the chromogenic substrate 1-chloro-2,4-dinitrobenzene (CDNB) from Sigma-Aldrich®. The GST activity was assayed at 25° C. in P. berghei protein extracts by monitoring the increase in absorbance at 340 nm on the basis of the extinction coefficient for the product S-(2,4-dinitrophenyl) glutathione (ε340 nm=9.6 mM^−1 cm^−1). The absorbance was measured in a 96-well plate (UV flat bottom Microtiter®, from Thermo Scientific) using the SpectraMax® M3 Microplate Reader (Molecular Devices). The parasite extract (0.65 mg/mL) and 1 mM CDNB were added to a 100 mM potassium phosphate (pH 6.5) buffer. The reaction was started by adding 1 mM GSH. To detect any residual GST activity associated with the parasite extract, blank reactions as controls (no GSH) were included. The Enzyme activity is reported as units (micromole of GSH/min)/mg of protein. This assay was standardized using the human placenta GST from Sigma-Aldrich® (Cat No. G8642) and used as positive control.
The compounds stock solutions were prepared in 100% DMSO. […] The half maximal inhibitory concentration (IC50) values were calculated using the non-linear regression function for sigmoidal dose-response (variable slope). Inhibition curves of pbGST was done in two independent experiments with one replicate each (n=2) whereas the inhibition curves of hGST was determined in three independent experiments in triplicate (n=9). […] GraphPad Prism software (Graph-Pad software, Inc., US, Mac Version 6) was used to make the graph and to perform the statistical analyses.
The GSK TCAMS compounds dilutions were prepared in DMSO and the final concentration of DMSO in the assay was 0.5%. Inhibition of pbGST by the GSK TCAMS compounds were determined by adding variable concentration of compounds (1, 10 and 50 μM) with a fixed P. berghei protein extracts concentration (0.65 mg/mL) in a total volume of 200 μL containing 1 mM CDNB and 100 mM potassium phosphate buffer (pH 6.5) at 25° C. The reaction was started by adding 1 mM GSH and activity was measured spectroscopically at 340 nm absorbance. The data obtained by varying compound concentration was analyzed using a column bar graph. Inhibition of pbGST by the GSK TCAMS compounds was done in duplicate. One GSK TCAMS compound, TCMDC-124132, was analyzed against the hGST in two independent experiments in triplicate (n=6). A statistical analysis was done using the GraphPad Prism software (Graph-Pad software, Inc., US, Mac Version 6). […]

[3] = molecular target: T1, human placenta GST (hGST) (Homo sapiens, UniProt P09211); experiment: Inhibition of GST activity (CDNB/GSH, 340 nm) of human placenta GST; type: biochemical
T1 construct: the human placenta GST from Sigma-Aldrich® (Cat No. G8642); purchased Sigma-Aldrich G8642; host or cells: human placenta (tissue-derived)
Experimental: Glutathione S-transferase Activity in Blood Stage Parasites: The parasite extracts were prepared as the method described in the Protein for Enzymatic Activity. The enzymatic activity was determined spectroscopically using the chromogenic substrate 1-chloro-2,4-dinitrobenzene (CDNB) from Sigma-Aldrich®. The GST activity was assayed at 25° C. in P. berghei protein extracts by monitoring the increase in absorbance at 340 nm on the basis of the extinction coefficient for the product S-(2,4-dinitrophenyl) glutathione (ε340 nm=9.6 mM^−1 cm^−1). The absorbance was measured in a 96-well plate (UV flat bottom Microtiter®, from Thermo Scientific) using the SpectraMax® M3 Microplate Reader (Molecular Devices). […]
The compounds stock solutions were prepared in 100% DMSO. […] The half maximal inhibitory concentration (IC50) values were calculated using the non-linear regression function for sigmoidal dose-response (variable slope). Inhibition curves of pbGST was done in two independent experiments with one replicate each (n=2) whereas the inhibition curves of hGST was determined in three independent experiments in triplicate (n=9). […]
The GSK TCAMS compounds dilutions were prepared in DMSO and the final concentration of DMSO in the assay was 0.5%. […] The reaction was started by adding 1 mM GSH and activity was measured spectroscopically at 340 nm absorbance. […]

[4] = ring stage to mature schizont development, 24 hours, luciferase readout, three independent experiments

P. berghei GST (pbGST), sequence (A0A509AJX5 entry or part of it): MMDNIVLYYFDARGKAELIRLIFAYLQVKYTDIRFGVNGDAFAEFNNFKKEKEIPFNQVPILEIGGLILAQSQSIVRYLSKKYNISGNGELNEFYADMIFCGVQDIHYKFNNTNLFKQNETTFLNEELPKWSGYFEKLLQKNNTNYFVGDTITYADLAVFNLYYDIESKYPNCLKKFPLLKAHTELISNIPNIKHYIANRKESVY
T1 sequence (P09211 2-210 limits assumed): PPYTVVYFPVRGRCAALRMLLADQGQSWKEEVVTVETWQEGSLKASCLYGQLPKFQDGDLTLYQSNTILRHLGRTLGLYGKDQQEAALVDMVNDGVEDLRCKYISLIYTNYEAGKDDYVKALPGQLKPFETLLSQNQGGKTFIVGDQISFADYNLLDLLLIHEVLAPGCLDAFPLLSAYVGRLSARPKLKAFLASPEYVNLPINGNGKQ

SMILES | pEC50 (P. berghei blood stages [2]; [4]) | inhibitory activity on pbGST (P. berghei GST (pbGST)) | further results
CCN(CC)CCCC(C)Nc1ccnc2cc(Cl)ccc12 (centres unmarked) [Chloroquine] |  |  | pEC50 (P. berghei blood stages [1]): 7.70
COc1ccc2nccc([C@@H](O)CN3CCC(NC(=O)c4cc5c(F)cc(F)cc5[nH]4)CC3)c2n1 [Compound 6] | 5.83 | No inhibitory activity | 
c1ccc2[nH]c(CN(Cc3nc4ccccc4[nH]3)Cc3nc4ccccc4[nH]3)nc2c1 [Compound 8] | 5.94 | tendency of inhibition | inhibitory activity on human placenta GST ([3]; at 50 μM and 100 μM, statistical difference at 100 μM, n=6): tendency of inhibition
Oc1ccc(CCNc2nc(NCc3ccccc3-c3ccc(C(F)(F)F)cc3)nc(N3CCNCC3)n2)cc1 [Compound 12] | 5.52 |  | 
CCCCCCSC[C@H](NC(=O)CC[C@H](N)C(=O)O)C(=O)NCC(=O)O [S-hexylglutathione, reference compound] |  |  | inhibition at 50 µM ([3]; 50 μM compound): 50%; pEC50 (P. berghei blood stages [2]; Plasmodium berghei, 24 h): 5.16; inhibition at 50 µM (P. berghei GST (pbGST); 50 μM compound): 50%
O=C1Nc2cccc3c2C1(CCCCN1CCC(c2cc4ccncc4[nH]2)CC1)CCC3 (centres unmarked) [TCMDC-141151/TCMDC-141221] | 5.98 | No inhibitory activity | 
COc1cc(/C=C/C(=O)CC(=O)/C=C/c2ccc(O)c(OC)c2)ccc1O [curcumin, reference compound] |  |  | pEC50 (P. berghei blood stages [2]; Plasmodium berghei, 24 h): 4.82
C=C(CC)C(=O)c1ccc(OCC(=O)O)c(Cl)c1Cl [ethacrynic acid, reference compound] |  |  | pEC50 (P. berghei blood stages [2]; Plasmodium berghei, ring stage to mature schizont development, 24 hours, luciferase readout, three independent experiments): 4.83
